Patent US12661416B2, “Combinations of imaging agent conjugates and application thereof” (Curadel Surgical Innovations, Inc., priority 2023, dated 2026)

How the values were obtained:
[1] = In vitro stability in warm serum (normalized absorbance / absorption spectra over time); type: in vitro ADME; conditions: compared to ZW800-1
Description: cRGD-ZW700-1c ZW700-1c, and ZW-800-1 are shown in FIG. 1 and are characterized with respect to their optical properties and stability in vitro. Commercial NIR fluorophores, such as IRDye™800-RS (RS-800), IRDye800-CW (CW-800), Cy5.5, and Cy7 have various degrees of sulfonation in order to achieve aqueous solubility.
The normalized absorbance of ZW800-1 and ZW700-1c in 37° C. buffered FBS, pH 7.4 over time from 0 to 60 hours are shown in FIGS. 2-4.

[2] = Stability in serum; type: in vitro ADME

SMILES | stability (normalized absorbance over time) ([1]; 37° C. buffered FBS, pH 7.4, 0 to 60 hours) | stability over time (changes in absorption spectra during metabolism in warm serum) ([1]; warm serum) | stability in serum [2]
CC1(C)C(/C=C/C(=C/C=C2/N(CCC[N+](C)(C)C)c3ccc(S(=O)(=O)[O-])cc3C2(C)C)c2ccc(CCC(=O)[O-])cc2)=[N+](CCC[N+](C)(C)C)c2ccc(S(=O)(=O)[O-])cc21 [ZW700-1c] | extreme stability | high stability | –
N=C(N)NCC[C@@H]1NC(=O)[C@H](CCCCN)NC(=O)[C@@H](Cc2ccc(O)cc2)NC(=O)[C@H](C(=O)O)NC(=O)CNC1=O [cRGD] | – | – | stable in serum for days
